According to ChEMBL document CHEMBL4118125, “MK-8325: A silyl proline-containing NS5A inhibitor with pan-genotype activity for treatment of HCV” (Bioorg Med Chem Lett, 2018):

Tests used:
[1] = Oral bioavailability in Sprague-Dawley rat at 5 mg/kg by LC-MS/MS method; type: ADME, organism-based; conditions: in vivo
[2] = Terminal half life in cynomolgus monkey at 1 mg/kg, iv by LC-MS/MS method; type: ADME, organism-based, Macaca fascicularis; conditions: in vivo, read-out: beta t1/2 (converted)
[3] = AUC in Sprague-Dawley rat at 5 mg/kg, po by LC-MS/MS method; type: ADME, organism-based; conditions: in vivo
[4] = Clearance in cynomolgus monkey at 1 mg/kg, iv by LC-MS/MS method; type: ADME, organism-based, Macaca fascicularis; conditions: in vivo
[5] = Cmax in cynomolgus monkey at 2 mg/kg, po by LC-MS/MS method; type: ADME, organism-based, Macaca fascicularis; set-up: dose 2 mg/kg, route oral; conditions: in vivo
[6] = Volume of distribution at steady state in beagle dog at 1 mg/kg, iv by LC-MS/MS method; type: ADME, organism-based, Canis lupus familiaris; conditions: in vivo, read-out: Vdss
[7] = Oral bioavailability in beagle dog at 2 mg/kg by LC-MS/MS method; type: ADME, organism-based, Canis lupus familiaris; conditions: in vivo
[8] = Volume of distribution at steady state in cynomolgus monkey at 1 mg/kg, iv by LC-MS/MS method; type: ADME, organism-based, Macaca fascicularis; conditions: in vivo, read-out: Vdss
Cynomolgus monkey = assay: Dose normalized AUC in cynomolgus monkey at 2 mg/kg, po by LC-MS/MS method; type: ADME, organism-based, Macaca fascicularis; conditions: in vivo
[9] = Effective half life in Sprague-Dawley rat at 2.5 mg/kg, iv by LC-MS/MS method; type: ADME, organism-based; conditions: in vivo, read-out: t1/2eff (converted)
[10] = Clearance in beagle dog at 1 mg/kg, iv by LC-MS/MS method; type: ADME, organism-based, Canis lupus familiaris; conditions: in vivo
[11] = Effective half life in beagle dog at 1 mg/kg, iv by LC-MS/MS method; type: ADME, organism-based, Canis lupus familiaris; conditions: in vivo, read-out: t1/2eff (converted)
[12] = Cmax in Sprague-Dawley rat at 5 mg/kg, po by LC-MS/MS method; type: ADME, organism-based; set-up: dose 5 mg/kg, route oral; conditions: in vivo
[13] = Oral bioavailability in cynomolgus monkey at 2 mg/kg by LC-MS/MS method; type: ADME, organism-based, Macaca fascicularis; conditions: in vivo
[14] = Cmax in beagle dog at 2 mg/kg, po by LC-MS/MS method; type: ADME, organism-based, Canis lupus familiaris; set-up: dose 2 mg/kg, route oral; conditions: in vivo
[15] = AUC in cynomolgus monkey at 2 mg/kg, po by LC-MS/MS method; type: ADME, organism-based, Macaca fascicularis; conditions: in vivo
[16] = Volume of distribution at steady state in Sprague-Dawley rat at 2.5 mg/kg, iv by LC-MS/MS method; type: ADME, organism-based; conditions: in vivo, read-out: Vdss
[17] = Drug level in cynomolgus monkey at 2 mg/kg, po after 24 hrs by LC-MS/MS method; type: ADME, organism-based, Macaca fascicularis; conditions: in vivo, read-out: Drug uptake
[18] = Tmax in Sprague-Dawley rat at 5 mg/kg, po by LC-MS/MS method; type: ADME, organism-based; conditions: in vivo
[19] = Terminal half life in beagle dog at 1 mg/kg, iv by LC-MS/MS method; type: ADME, organism-based, Canis lupus familiaris; conditions: in vivo, read-out: beta t1/2 (converted)
[20] = Clearance in Sprague-Dawley rat at 2.5 mg/kg, iv by LC-MS/MS method; type: ADME, organism-based; conditions: in vivo
[21] = Oral bioavailability in fasted dog at 2 mg/kg by LC-MS/MS method; type: ADME, organism-based, Canis lupus familiaris; conditions: in vivo
[22] = Drug level in beagle dog at 2 mg/kg, po after 24 hrs by LC-MS/MS method; type: ADME, organism-based, Canis lupus familiaris; conditions: in vivo, read-out: Drug uptake
[23] = Effective half life in cynomolgus monkey at 1 mg/kg, iv by LC-MS/MS method; type: ADME, organism-based, Macaca fascicularis; conditions: in vivo, read-out: t1/2eff (converted)
Canis familiaris = assay: Dose normalized AUC in beagle dog at 2 mg/kg, po by LC-MS/MS method; type: ADME, organism-based, Canis lupus familiaris; conditions: in vivo
[24] = Terminal half life in Sprague-Dawley rat at 2.5 mg/kg, iv by LC-MS/MS method; type: ADME, organism-based; conditions: in vivo, read-out: beta t1/2 (converted)
[25] = Drug level in Sprague-Dawley rat at 5 mg/kg, po after 24 hrs by LC-MS/MS method; type: ADME, organism-based; conditions: in vivo, read-out: Drug uptake
[26] = Tmax in beagle dog at 2 mg/kg, po by LC-MS/MS method; type: ADME, organism-based, Canis lupus familiaris; conditions: in vivo
[27] = AUC in beagle dog at 2 mg/kg, po by LC-MS/MS method; type: ADME, organism-based, Canis lupus familiaris; conditions: beagle, in vivo
Rattus norvegicus = assay: Dose normalized AUC in Sprague-Dawley rat at 5 mg/kg, po by LC-MS/MS method; type: ADME, organism-based; conditions: in vivo
[28] = Tmax in cynomolgus monkey at 2 mg/kg, po by LC-MS/MS method; type: ADME, organism-based, Macaca fascicularis; conditions: in vivo

In the case of `COC(=O)N[C@H](C(=O)N1CC(F)(F)C[C@H]1c1ncc(-c2ccc(-c3ccc4c(ccc5nc([C@@H]6C[Si](C)(C)CN6C(=O)[C@@H](NC(=O)OC)C(C)C)[nH]c54)c3)cc2)[nH]1)C(C)C.Cl.Cl`, the bioavailability [1] is reported as 28%, the half-life [2] is reported as 20 h and the AUC [3] is reported as 5 µM·h. The clearance [4] was 1.2 mL/min/kg, the Cmax [5] was 180 nM and the Vd [6] was 1.3 L/kg. It also gave a bioavailability [7] of 8.7%, a Vd [8] of 1.7 L/kg and an AUC/dose (Cynomolgus monkey) of 2 µM·h/mg/kg. It also gave a half-life [9] of 7.6 h, a clearance [10] of 0.8 mL/min/kg and a half-life [11] of 18 h. For the same compound, the Cmax [12] was 330 nM, the bioavailability [13] was 11.7% and the Cmax [14] was 270 nM. It also gave an AUC [15] of 4 µM·h, a Vd [16] of 3.7 L/kg and a concentration at 24 h [17] of 55 nM. For the same compound, the Tmax [18] was 5.3 h, the half-life [19] was 26 h and the clearance [20] was 5.6 mL/min/kg. For the same compound, the bioavailability [21] was 9%, the concentration at 24 h [22] was 40 nM and the half-life [23] was 17 h. It also gave an AUC/dose (Canis familiaris) of 2.1 µM·h/mg/kg, a half-life [24] of 9.7 h and a concentration at 24 h [25] of 51 nM. It also gave a Tmax [26] of 2.7 h, an AUC [27] of 4.2 µM·h and an AUC/dose (Rattus norvegicus) of 1 µM·h/mg/kg. The Tmax [28] was 4.7 h.
